Consider 18 molecules from ChEMBL document CHEMBL5257110, “Recent developments of imidazo[1,2-a]pyridine analogues as antituberculosis agents” (RSC Med Chem, 2023).

In data set [1] the test system is Mycobacterium tuberculosis. As to the kind of experiment: Antimycobacterial activity against Mycobacterium tuberculosis H37Rv. The class given is functional.
The test system of data set [2] is Mycobacterium tuberculosis. As to the kind of experiment: Antimycobacterial activity against drug-sensitive Mycobacterium tuberculosis H37Rv. The class given is functional.
The subject of data set [3] is Mycobacterium tuberculosis. As to the kind of experiment: Antimycobacterial activity against Mycobacterium tuberculosis 7H12. The class given is functional.
The test system of data set [4] is Mycolicibacterium smegmatis. As to the kind of experiment: Antimycobacterial activity against Mycobacterium smegmatis. The class given is functional.
Data set [5] can be described thus: Cytotoxicity against CHO-K1 cells. Particulars: Chinese hamster. In kind it is toxicity, cell-based, Cricetulus griseus.
Data set [6] concerns Mycobacterium tuberculosis. As to the kind of experiment: Antimycobacterial activity against replicating Mycobacterium tuberculosis H37Rv. The class given is functional.
The subject of data set [7] is Mycobacterium tuberculosis. As to the kind of experiment: Antibacterial activity against non-replicating Mycobacterium tuberculosis H37Rv-LUX assessed as inhibition of bacterial growth incubated for 9 days under anaerobic conditions followed by 28 hrs under aerobic conditions by LORA assay. Particulars: time 244 hrs. The class given is functional.
Data set [8] can be described thus: Cytotoxicity against African green monkey Vero cells assessed as reduction in cell viability. In kind it is toxicity, cell-based, Chlorocebus sabaeus. Particulars: for IC50: African green monkey.
Data set [9] in a line: Aqueous solubility of the compound. In kind it is physicochemical. Particulars: aqueous medium.
Data set [10] can be described thus: Microsomal stability in human liver microsomes assessed as half life. The class given is ADME, Microsome. On the technique in general: Microsomes from liver hold many membrane-bound enzymes, among them those of drug oxidation.
Data set [11] relates to Mycobacterium tuberculosis. As to the kind of experiment: Antimycobacterial activity against Mycobacterium tuberculosis Erdman infected in BALB/c mouse model assessed as log reduction of bacterial load in lung at 200 mg/kg, po administered 5 days a week for 30 days untill day 58. The class given is functional. The following applies: time 58 day.
Data set [12] relates to Mycobacterium tuberculosis. As to the kind of experiment: Antimycobacterial activity against drug-sensitive Mycobacterium tuberculosis V4207. In kind it is functional.
The subject of data set [13] is Mycobacterium tuberculosis. As to the kind of experiment: Antimycobacterial activity against MDR-Mycobacterium tuberculosis KZN494. The class given is functional.
Data set [14] deals with Mycobacterium tuberculosis. As to the kind of experiment: Antimycobacterial activity against MDR-Mycobacterium tuberculosis V2475. In kind it is functional.
Data set [15] relates to Mycobacterium tuberculosis. As to the kind of experiment: Antimycobacterial activity against XDR-Mycobacterium tuberculosis R506. The class given is functional.
The test system of data set [16] is Mycobacterium tuberculosis. As to the kind of experiment: Antimycobacterial activity against XDR-Mycobacterium tuberculosis TF274. In kind it is functional.
A short description of data set [17]: Selectivity index, ratio of IC50 for cytotoxicity against African green monkey Vero cells to MIC90 for antimycobacterial activity against drug-sensitive Mycobacterium tuberculosis H37Rv. In kind it is toxicity, cell-based. The following applies: read-out: Selectivity Index.
Data set [18] in a line: Selectivity index, ratio of IC50 for cytotoxicity against African green monkey Vero cells to MIC90 for antimycobacterial activity against drug-sensitive Mycobacterium tuberculosis V4207. The following applies: read-out: Selectivity Index. The class given is toxicity, cell-based.
Data set [19] is described as follows: Selectivity index, ratio of IC50 for cytotoxicity against African green monkey Vero cells to MIC90 for antimycobacterial activity against MDR-Mycobacterium tuberculosis KZN494. The class given is toxicity, cell-based. Particulars: read-out: Selectivity Index.
The nature of data set [20]: Selectivity index, ratio of IC50 for cytotoxicity against African green monkey Vero cells to MIC90 for antimycobacterial activity against MDR-Mycobacterium tuberculosis V2475. Particulars: read-out: Selectivity Index. In kind it is toxicity, cell-based.
The nature of data set [21]: Selectivity index, ratio of IC50 for cytotoxicity against African green monkey Vero cells to MIC90 for antimycobacterial activity against XDR-Mycobacterium tuberculosis R506. The class given is toxicity, cell-based. Particulars: read-out: Selectivity Index.
A short description of data set [22]: Selectivity index, ratio of IC50 for cytotoxicity against African green monkey Vero cells to MIC90 for antimycobacterial activity against XDR-Mycobacterium tuberculosis TF274. The class given is toxicity, cell-based. The following applies: read-out: Selectivity Index.

The structures appear in SMILES notation. ≈ marks a conversion by molar mass, not a printed value.

As to `Cc1ccn2c(C(=O)NCc3ccccc3)c(C)nc2c1`, the MIC99 (usually the lowest concentration that inhibits either 99% of growth or 99% of the strains tested, depending on the study) in [1] was 0.2 µM (≈ 0.0559 µg/mL).
Turning to `Cc1ccc2nc(C)c(C(=O)NCc3cccs3)n2c1`, the MIC90 (commonly an inhibitory concentration at the 90% level, which refers to growth in some studies and to a panel of isolates in others) in data set [2] turned out to be 0.22 µM (≈ 0.0628 µg/mL).
In data set [3], `CC(C)(C)OC(=O)N1CCN(c2nc(=O)c3cc(C(F)(F)F)cc([N+](=O)[O-])c3s2)CC1` showed an MIC90 of 0.28 µM (≈ 0.129 µg/mL).
In data set [1], `Cc1ccn2nc(C)c(C(=O)NCc3ccc(C(F)(F)F)cc3)c2c1` returned an MIC90 of 0.069 µM (≈ 0.024 µg/mL).
Still for that read-out and setting: with `COc1ccn2nc(C)c(C(=O)NCc3ccc(N4CCC(c5ccc(OC(F)(F)F)cc5)CC4)cc3)c2c1` the figure was 0.011 µM (≈ 0.00592 µg/mL).
In turn, `Cc1ccn2c(C(=O)N3CCN(c4nc(=O)c5cc(C(F)(F)F)cc([N+](=O)[O-])c5s4)CC3)c(C)nc2c1` registered an MIC90 in [3] of 2.1 µM (≈ 1.12 µg/mL).
On the same count and under the same terms, the value for `Cc1ccn2c(C(=O)NCc3ccc(C(=O)OCc4ccccc4)cc3)c(C)nc2c1` was 0.21 µM (≈ 0.0868 µg/mL).
Same read-out and setting: the value for `Cc1ccn2c(C(=O)NCc3ccc(C(=O)N4CCN(c5nc(=O)c6cc(C(F)(F)F)cc([N+](=O)[O-])c6s5)CC4)cc3)c(C)nc2c1` was over 10 µM.
`Cc1nc(-c2ccc(F)cc2)sc1-c1cn2ccccc2n1`: the MIC90 in data set [4] came out at 90.2 µM (≈ 27.9 µg/mL).
With `N#Cc1cccc(Nc2cc(C(F)(F)F)ccc2-c2cnc3ccccn23)c1`, in data set [5], half-maximal inhibition (IC50) was put at 217 µM. This molecule also registered an MIC90 in data set [1] of 6.08 µM (≈ 2.3 µg/mL).
On to `Cc1cn2c(C(=O)NCc3ccc(N4CCN(c5ccc(OC(F)(F)F)cc5)CC4)c(F)c3)c(C)nc2s1`, for which the MIC90 in [6] was found to be 0.008 µM (≈ 0.00438 µg/mL); in data set [7] it was 1.1 µM (≈ 0.602 µg/mL). In data set [8] (chlorocebus sabaeus), the CC50 (in general, the concentration at which the toxic effect on the cells reaches its halfway point) is over 100 µM. For the same molecule, the concentration in solution in data set [9] (solubility) was 50 µM (≈ 27.4 µg/mL). Also, the half-life (as a rule, how long it takes for the measured level to halve) in [10] was found to be 28 min. Further, the Activity in data set [11] came to 0.3 log10CFU.
For the molecule `Cc1nc(-c2ccc(F)cc2)sc1-c1cn2ccc(Br)cc2n1`, in data set [4], the MIC90 was found to be 53.6 µM (≈ 20.8 µg/mL).
`CCc1ccn2c(C(=O)NCc3ccc(C)cc3)c(C)nc2c1` returned an MIC90 in data set [6] of 0.004 µM (≈ 0.00123 µg/mL).
The molecule `Cc1ccc(CNC(=O)Cc2c(C)nc3ccc(C)cn23)cc1` displayed an MIC90 in data set [1] of 1.7 µM (≈ 0.523 µg/mL).
Molecule `Cc1nc(-c2ccccc2)sc1-c1cn2ccc(Br)cc2n1` came in with an MIC90 in data set [4] of 67.5 µM (≈ 25 µg/mL).
As to `Cc1ccc2nc(C)c(C(=O)NCCCC3CCCCC3)n2c1`, in [8], the IC50 (usually the midpoint of a concentration-inhibition curve) stood at 120 µM. The MIC90 in data set [2] amounted to 0.1 µM (≈ 0.0313 µg/mL); in data set [12] it was 0.1 µM (≈ 0.0313 µg/mL); in [13], 0.05 µM (≈ 0.0157 µg/mL); in data set [14] it was 0.2 µM (≈ 0.0627 µg/mL); in [15], 0.1 µM (≈ 0.0313 µg/mL); in data set [16] it was 0.2 µM (≈ 0.0627 µg/mL). The selectivity ratio in data set [17], in data set [18], in data set [19], in data set [20], in data set [21] and in data set [22] was at least 1024 in each case.
On to `Cc1nc2ccc(Cl)cn2c1C(=O)NCCCC1CCCCC1`, for which the IC50 in [8] was at least 191 µM. The MIC90 in [2] came out at 0.19 µM (≈ 0.0634 µg/mL); in data set [12], 0.37 µM (≈ 0.124 µg/mL); in data set [13], 0.09 µM (≈ 0.03 µg/mL); in data set [14], 0.37 µM (≈ 0.124 µg/mL); in [15], 0.75 µM (≈ 0.25 µg/mL); in data set [16], 1.5 µM (≈ 0.501 µg/mL). The selectivity ratio in [17], in data set [18], in data set [19], in data set [20], in data set [21] and in data set [22] was at least 1024 each time.
The molecule `Cc1ccc(-c2nc3ccc(C)cn3c2CC(=O)N(C)C)cc1` [ZOLPIDEM] registered an MIC90 in data set [6] of 10 µM (≈ 3.07 µg/mL).
